Experimental findings from the supplement of paper PMC11061612 are described below.

Assay in all cases: Bliss excess, mean over the matrix (fraction); higher = more synergy
The subject of experiment [1] is L-428 (Hodgkin's Lymphoma). The method, boiled down:
(§1)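 Cell lines in DMEM/F12 or RPMI with 10% FBS were plated in 1536-well plates, held 24 hours at 37°C, 5% CO2, then given two-drug dose matrices for 72 hours (DMSO typically 0.2%). Viability was read by CellTiter-Glo 2.0 luminescence and scaled as inhibition from 0 (vehicle wells) to 1 (blank wells). Combination Emax is the second-highest inhibition in the matrix; Bliss excess is observed combination effect minus expected EA + EB − EA·EB, EA and EB being single-agent effects.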

The test system of experiment [2] is NCI-H1568 (Lung Adenocarcinoma). The method, boiled down: as §1
Another experiment concerns GAMG (Glioblastoma). In a few lines:
as §1

The subject of experiment [3] is SNU-449 (Hepatocellular Carcinoma). The method, boiled down: as §1
Experiment [4] has as its system OE21 (Esophageal Squamous Cell Carcinoma). In a few lines: as §1
The next experiment deals with BE2-M17 (Neuroblastoma). In a few lines: as §1
Experiment [5] concerns LS-123 (Colorectal Carcinoma). In a few lines: as §1
Experiment [6] relates to NCI-H209 (Small Cell Lung Carcinoma). The method, boiled down:
as §1

The subject of experiment [7] is HuH-7 (Hepatocellular Carcinoma). The method, boiled down:
as §1

The test system of experiment [8] is BE-13 (T-Lymphoblastic Leukemia). The method, boiled down:
as §1

For a further experiment, the system named is CAL-72 (Osteosarcoma). In a few lines:
as §1

In experiment [9] the test system is TGBC1TKB (Biliary Tract Carcinoma). The method, boiled down: as §1
Experiment [10] relates to CAL-33 (Oral Cavity Carcinoma). The method, boiled down:
as §1

For a further experiment, the system named is NCI-H2722 (Mesothelioma). In a few lines:
as §1

The subject of the next experiment is EW-11 (Ewing's Sarcoma). The method, boiled down: as §1
In a further experiment the test system is KS-1 (Glioblastoma). The method, boiled down:
as §1

Experiment [11] concerns MHH-CALL-2 (B-Lymphoblastic Leukemia). In a few lines:
as §1

Experiment [12] has as its system HeLa (Cervical Carcinoma). The method, boiled down:
as §1

Experiment [13] concerns SNU-16 (Gastric Carcinoma). The method, boiled down: as §1
Experiment [14] has as its system NCI-H524 (Small Cell Lung Carcinoma). In a few lines:
as §1

As to `COc1nnc2ccc(N3CCC(c4ccc(OCCN5CCN(C)C(=O)[C@H]5C)cc4)CC3)nn12` [AZD5153] + CCN(CCO)CCCOc1ccc2c(Nc3cc(CC(=O)Nc4cccc(F)c4)[nH]n3)ncnc2c1 [AZD2811] (first compound max 1 µM, 7x7, partner max 1 µM), the Bliss excess in experiment [1] was 0.0085; in experiment [2], -0.064; in the experiment on GAMG (Glioblastoma), 0.0004; in experiment [3] it was -0.0179; in experiment [4] it was -0.0315; with BE2-M17 (Neuroblastoma), 0.102. The Bliss excess in experiment [5] was -0.0004; in experiment [6], -0.0145; in [7] it was -0.051; in experiment [8], -0.0637; in the experiment on CAL-72 (Osteosarcoma), -0.012; in [9], 0.0017. Also, the Bliss excess in experiment [10] was -0.128; in the experiment on NCI-H2722 (Mesothelioma) it was -0.0263; in the experiment with EW-11 (Ewing's Sarcoma), -0.06; in the experiment on KS-1 (Glioblastoma) it was -0.0317; in [11], 0.0191; in [12] it was -0.0457. Besides, the Bliss excess in [13] is 0.0728; in experiment [14], -0.0138.

On to `Cc1c2c(nn1C)CSCc1cc(n(C)n1)CSc1cc(c3ccccc3c1)OCCCc1c(C(=O)O)n(C)c3c-2c(Cl)ccc13` [AZD5991] + CC1(C)CCC(CN2CCN(c3ccc(C(=O)NS(=O)(=O)c4ccc(NCC5CCOCC5)c([N+](=O)[O-])c4)c(Oc4cnc5[nH]ccc5c4)c3)CC2)=C(c2ccc(Cl)cc2)C1 [Venetoclax] (first compound max 1 µM, 7x7, partner max 1 µM), for which the Bliss excess in [1] is -0.0151; in [2], -0.0334; in the experiment on GAMG (Glioblastoma), -0.0047; in experiment [3], -0.0286; in experiment [4], 0.0182; with BE2-M17 (Neuroblastoma), 0.0276. Further, the Bliss excess in experiment [5] was -0.026; in experiment [6], 0.241; in experiment [7], -0.0272; in experiment [8], 0.106; in the experiment with CAL-72 (Osteosarcoma), 0.0676; in [9], -0.0252. The Bliss excess in experiment [10] was 0.0122; with NCI-H2722 (Mesothelioma), -0.0733; in the experiment with EW-11 (Ewing's Sarcoma), 0.144; in the experiment with KS-1 (Glioblastoma), -0.0307; in experiment [11], 0.0043; in experiment [12], 0.0343. In addition, the Bliss excess in experiment [13] stood at 0.0558; in experiment [14], 0.0725.

In the case of `CC1(C)CCC(CN2CCN(c3ccc(C(=O)NS(=O)(=O)c4ccc(NCC5CCOCC5)c([N+](=O)[O-])c4)c(Oc4cnc5[nH]ccc5c4)c3)CC2)=C(c2ccc(Cl)cc2)C1` [Venetoclax] + C[C@@H]1COCCN1C2=NC(=NC(=C2)C3(CC3)[S@](=N)(=O)C)C4=C5C=CNC5=NC=C4 [AZD6738] (first compound max 1 µM, 7x7, partner max 10 µM), the Bliss excess was 0.0164 in experiment [1]; -0.0156 in experiment [2]; -0.0727 in the experiment with GAMG (Glioblastoma); -0.0239 in experiment [3]; -0.0357 in [4]; -0.0661 with BE2-M17 (Neuroblastoma). Also, the Bliss excess in experiment [5] is -0.0395; in experiment [6], 0.127; in experiment [7] it was -0.0181; in experiment [8], -0.0204; with CAL-72 (Osteosarcoma), -0.0313; in [9], -0.0517. Further, the Bliss excess in experiment [10] was -0.0489; in the experiment on NCI-H2722 (Mesothelioma), -0.0405; with EW-11 (Ewing's Sarcoma), 0.0321; with KS-1 (Glioblastoma), -0.0368; in experiment [11] it was -0.0357; in experiment [12], -0.0688. In addition, the Bliss excess in [13] is -0.0218; in [14], -0.0453.

On to `CC1(C)CCC(CN2CCN(c3ccc(C(=O)NS(=O)(=O)c4ccc(NCC5CCOCC5)c([N+](=O)[O-])c4)c(Oc4cnc5[nH]ccc5c4)c3)CC2)=C(c2ccc(Cl)cc2)C1` [Venetoclax] + CN(C)CCCOc1ccc(-c2ccc3ncc4c(c3c2)n(C2CCOCC2)c(=O)n4C)cn1 [AZD0156] (first compound max 1 µM, 7x7, partner max 1 µM), for which the Bliss excess in experiment [1] is -0.0057; in [2] it was -0.0166; in the experiment on GAMG (Glioblastoma), -0.0225; in experiment [3], -0.07; in experiment [4] it was -0.0165; in the experiment with BE2-M17 (Neuroblastoma) it was 0.0093. Besides, the Bliss excess in experiment [5] is -0.0169; in experiment [6], 0.0423; in [7] it was 0.0028; in experiment [8], 0.0084; with CAL-72 (Osteosarcoma) it was -0.0002; in experiment [9], -0.0186. For the same compound, the Bliss excess in [10] was -0.0064; in the experiment with NCI-H2722 (Mesothelioma) it was -0.081; in the experiment with EW-11 (Ewing's Sarcoma), 0.0067; in the experiment on KS-1 (Glioblastoma), -0.007; in [11], 0.0128; in experiment [12] it was -0.0178. The Bliss excess in experiment [13] was -0.0015; in [14], 0.0028.

Consider `Cc1c2c(nn1C)CSCc1cc(n(C)n1)CSc1cc(c3ccccc3c1)OCCCc1c(C(=O)O)n(C)c3c-2c(Cl)ccc13` [AZD5991] + C=CCn1c(=O)c2cnc(Nc3ccc(N4CCN(C)CC4)cc3)nc2n1-c1cccc(C(C)(C)O)n1 [AZD1775] (first compound max 1 µM, partner max 1 µM), for which the Bliss excess in experiment [1] is 0.0145; in [2], 0.0349; with GAMG (Glioblastoma) it was -0.0528; in [3] it was 0.0317; in [4], -0.0135; in the experiment with BE2-M17 (Neuroblastoma) it was -0.03. For the same compound, the Bliss excess in experiment [5] is -0.0197; in experiment [6], 0.0103; in experiment [7] it was -0.0259; in [8], -0.0097; in the experiment with CAL-72 (Osteosarcoma), 0.0098; in experiment [9], 0.0066. Moreover, the Bliss excess in experiment [10] is -0.0275; in the experiment with NCI-H2722 (Mesothelioma) it was -0.016; in the experiment on EW-11 (Ewing's Sarcoma), -0.0011; with KS-1 (Glioblastoma), -0.0553; in experiment [11], 0.0108; in experiment [12], -0.0224. Moreover, the figures for the Bliss excess in experiment [13] and in [14] were 0.0049 and -0.0274, respectively.

As for `CC(=O)Nc1cccc(-n2c(=O)n(C3CC3)c(=O)c3c(Nc4ccc(I)cc4F)n(C)c(=O)c(C)c32)c1` [Trametinib] + Cc1nc(-c2cn3c(n2)-c2ccc(-c4cnn(C(C)(C)C(N)=O)c4)cc2OCC3)n(C(C)C)n1 [Taselisib] (first compound max 1 µM, 7x7, partner max 10 µM), the Bliss excess is -0.0045 in [1]; 0.131 in experiment [2]; 0.0415 in the experiment on GAMG (Glioblastoma); -0.0432 in [3]; 0.147 in [4]; 0.107 in the experiment with BE2-M17 (Neuroblastoma). Besides, the Bliss excess was 0.0939 in [5]; -0.0014 in experiment [6]; 0.0875 in [7]; -0.0123 in experiment [8]; -0.0264 in the experiment on CAL-72 (Osteosarcoma); 0.0385 in experiment [9]. The Bliss excess in experiment [10] is 0.104; in the experiment on NCI-H2722 (Mesothelioma), -0.0078; in the experiment with EW-11 (Ewing's Sarcoma) it was 0.0443; in the experiment with KS-1 (Glioblastoma) it was 0.015; in experiment [11] it was 0.188; in experiment [12] it was 0.0483. The Bliss excess in experiment [13] was 0.257; in experiment [14], -0.112.
